# Assay results reported in ChEMBL document CHEMBL1146593, “Constituents of the stem bark of Pongamia pinnata with the potential to induce quinone reductase” (J Nat Prod, 2003).
# How the values were obtained:
# [1] = Inhibition of mouse Hepa-1c1c7 cells assessed as cell viability; type: cell-based
# [2] = Chemoprevention index, ratio of IC50 for mouse Hepa-1c1c7 cells to drug level required to double NADPH:quinone reductase activity in mouse Hepa-1c1c7 cells; type: functional
compound,measurement,setting,value
COc1cc(OC)c2c(c1C=O)O[C@H](c1ccccc1)CC2=O,IC50,[1],> 10 µg/mL
same,Ratio,[2],>3.9
CC1=C[C@@H]2[C@@H](CC1)[C@](C)(O)CC[C@H]2C(C)C,IC50,[1],> 5 µg/mL
same,Ratio,[2],>2.2
CO/C(=C\C(=O)c1c(OC)cc2c(c1OC)C=CC(C)(C)O2)c1ccccc1,IC50,[1],9.6 µg/mL
same,Ratio,[2],8
C=C(C)[C@@H](O)Cc1c(OC)cc(OC)c2c1O[C@H](c1ccccc1)CC2=O,IC50,[1],19.3 µg/mL
same,Ratio,[2],4.4
COc1cc2c(c3oc(-c4ccccc4)cc(=O)c13)C=CC(C)(C)O2 [CANDIDIN],IC50,[1],4.5 µg/mL
same,Ratio,[2],1
COc1cc(OC)c2c(c1CC=C(C)C)O[C@H](c1ccccc1)CC2=O [CANDIDONE],IC50,[1],4.1 µg/mL
same,Ratio,[2],0.9
COc1cc2c(c(OC)c1C(=O)CC(=O)c1ccc3c(c1)OCO3)C=CC(C)(C)O2 [PONGAPINONE A],IC50,[1],23.8 µg/mL
same,Ratio,[2],4.8
COc1cc(OC)c2c(c1CC=C(C)C)O[C@H](c1ccc3c(c1)OCO3)CC2=O [PONGAPINONE B],IC50,[1],19.1 µg/mL
same,Ratio,[2],7.6
COc1cc2c(c(OC)c1C(=O)/C=C(\O)c1ccccc1)C=CC(C)(C)O2 [PRAECANSONE B],IC50,[1],6.5 µg/mL
same,Ratio,[2],1.8
C[S+]([O-])CCCCN=C=S (stereo not given) [SULFORAPHANE],IC50,[1],2.1 µg/mL
same,Ratio,[2],24.1
